In ChEMBL document CHEMBL1201862, “PubChem BioAssay data set” (2004):
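Cells were grown in 96-well plates and exposed to each compound for 48 hours at five concentrations; endpoints were interpolated linearly between bracketing concentrations, or set to the highest concentration if not reached. At the GI50, growth is halved.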 The source made the active and inactive calls. Rule as the data show it: active = GI50 up to about 1.1 µM and inactive = higher.

Key:
Assay in all cases: NCI tumour cell line growth inhibition, 48 h
[1] = system: HCT-116
[2] = system: SK-MEL-2
[3] = system: KM-20L2
[4] = system: 786-0
[5] = system: NCI-H226
[6] = system: RPMI-8226
[7] = system: HL-60
[8] = system: HCC 2998
[9] = system: A549
[10] = system: OVCAR-8
[11] = system: M14
[12] = system: CAKI-1
[13] = system: SK-MEL-28
[14] = system: SR
[15] = system: SK-MEL-5
[16] = system: UACC-62
[17] = system: EKVX
[18] = system: MOLT-4
[19] = system: MDA-MB-435
[20] = system: DU-145

Measured: GI50

O=C(/C=C/c1ccc(OCCCOc2ccc(/C=C/C(=O)c3ccc(Cl)cc3)cc2)cc1)c1ccc(Cl)cc1
inactive: [1] > 100 µM | [2] > 100 µM | [3] > 100 µM | [4] > 100 µM | [5] > 100 µM | [6] > 100 µM | [7] > 100 µM | [8] > 100 µM | [9] > 100 µM | [10] > 100 µM | [11] > 100 µM | [12] > 100 µM | [13] > 100 µM | [14] > 100 µM | [15] > 100 µM | [16] > 100 µM | [17] > 100 µM | [18] > 100 µM

COc1cccc(NC(=O)C(=O)C2C=CCS2(=O)=O)c1 (stereo not drawn)
inactive: [1] > 100 µM | [2] > 100 µM | [3] > 100 µM | [4] > 100 µM | [5] > 100 µM | [6] > 100 µM | [7] > 100 µM | [8] > 100 µM | [9] > 100 µM | [10] 53.8 µM | [11] > 100 µM | [12] > 100 µM | [13] > 100 µM | [14] > 100 µM | [15] > 100 µM | [16] > 100 µM | [17] > 100 µM | [18] > 100 µM

O=C(Nc1cc(Cl)c(Cl)cc1Cl)C(=O)C1C(=O)NC(=S)NC1=O
inactive: [1] > 100 µM | [2] > 100 µM | [3] > 100 µM | [4] > 100 µM | [5] > 100 µM | [6] > 100 µM | [7] > 100 µM | [8] > 100 µM | [9] > 100 µM | [10] > 100 µM | [11] > 100 µM | [12] > 100 µM | [13] > 100 µM | [14] > 100 µM | [15] > 100 µM | [16] > 100 µM | [17] > 100 µM | [18] > 100 µM

C#CCNC(=O)NCCCCC(NC(=O)OCc1ccccc1)C(=O)OCc1ccccc1 (stereo not drawn)
inactive: [1] > 68.2 µM | [2] > 96.2 µM | [3] > 100 µM | [4] > 58.1 µM | [5] > 100 µM | [6] 21.2 µM | [7] 18 µM | [8] 37.9 µM | [9] 72.4 µM | [10] 48.4 µM | [11] 37.6 µM | [12] > 59.4 µM | [13] > 100 µM | [14] 45 µM | [15] > 100 µM | [16] 63.5 µM | [17] > 100 µM | [18] 22.2 µM

Cc1ccc(C)c(NC(=O)/C(=N\NC(N)=S)C(C#N)c2ccccc2)c1 (stereo not drawn)
inactive: [1] > 100 µM | [2] > 100 µM | [3] > 100 µM | [4] > 100 µM | [5] > 100 µM | [6] > 100 µM | [7] > 100 µM | [8] > 100 µM | [9] > 100 µM | [10] > 100 µM | [11] > 100 µM | [12] > 100 µM | [13] > 100 µM | [14] > 100 µM | [15] > 100 µM | [16] > 100 µM | [17] > 100 µM | [18] > 100 µM

COc1cc(C(O)C(=O)c2nc3ccc([N+](=O)[O-])cc3nc2O)ccc1O (stereo not drawn)
inactive: [1] > 100 µM | [2] > 100 µM | [3] 69.7 µM | [4] > 100 µM | [5] > 100 µM | [6] 77.3 µM | [7] 70.5 µM | [8] 74.1 µM | [9] 98.9 µM | [10] > 100 µM | [11] > 100 µM | [12] > 100 µM | [13] 26.4 µM | [14] > 100 µM | [15] 81.1 µM | [16] 73.1 µM | [17] 90.6 µM | [18] > 100 µM

O=C1NC2(CCCCC2)C(=O)N1CCN(CCCl)CCCl [SPIROMUSTINE]
inactive: [19] > 25 µM | [1] 190 µM | [2] > 141 µM | [3] > 194 µM | [4] > 25 µM | [5] > 250 µM | [6] 134 µM | [7] 41.9 µM | [8] > 230 µM | [9] 135 µM | [10] 129 µM | [11] > 25 µM | [12] 41.8 µM | [13] 97.5 µM | [14] 19.4 µM | [15] > 241 µM | [16] 77.6 µM | [17] 204 µM | [20] > 25 µM | [18] 34.2 µM
